In PMC12298648, “An Evaluation of the Cytotoxicity and Safety Profile of Usnic Acid for a Broad Panel of Human Cancers and Normal Cells with Respect to Its Enantiospecificity” (Molecules, 2025):
Values after ≈ are worked out from the molar mass of the structure shown. Where two headings read alike, the source gives them in different places.

Experiments:
DU145 cells = details: DU145, 72 h, cited from earlier work
MDA-MB-231 = assay: MTT viability assay, MDA-MB-231 breast cancer cells; assay type: cell-based, human; details: for IC50: Homo sapiens; for Cell viability: MDA-MB-231, 24 h
Text: (§1) Cell lines of different origins were used in the study and grouped as follows: prostate panel (human prostate carcinomas: DU145, derived from metastatic site: brain; grade IV PC3, derived from metastatic site: bone; LNCaP, derived from the metastatic site: lymph node; prostate epithelial, PNT2), colon panel (colorectal adenocarcinomas: HT29, originating from a primary tumor; Duke’s type C DLD-1, with the potential to lymph node metastasis; highly metastatic HCT116; colon epithelial cells CCD 841 CoN), thyroid panel (follicular thyroid carcinoma FTC133, anaplastic thyroid carcinoma 8505C, papillary thyroid carcinoma TPC-1, normal thyroid follicular epithelial Nthy-ori 3–1), breast panel (ER-positive breast adenocarcinoma MCF7, ER-negative breast adenocarcinoma MDA-MB-231, breast epithelial MCF10A), brain panel (neuroblastoma SH-SY5Y, glioblastoma U-87 MG, murine astrocytes C8D1A). All cell lines were purchased from Merck (Darmstadt, Germany).
(§2) Cells were grown under standard conditions (37 °C, 5% CO2) and culture media (DMEM/F12 for PNT2, PC3, FTC133, 8505 C, MDA-MB-231, TPC-1; DMEM Low Glucose for DU145; DMEM High Glucose for HCT116, DLD-1, SH-SY5Y, U87MG, C8D1A; MEM with NEAA for MCF7; MEM for CCD 841 CoN; McCoy’s for HT29; RPMI1640 with sodium pyruvate for LNCaP; DMEM/F12 with 20 ng/mL epidermal growth factor (EGF), 10 μg/mL insulin, 0.5 μg/mL hydrocortisone, 100 ng/mL cholera toxin) for MCF10A), supplemented with 10% fetal bovine serum (FBS) or 5% donor horse serum for MCF10A, and 1% antibiotics solution (10,000 U penicillin and 10 mg streptomycin/mL). The tested substances were prepared as 10 mg/mL stock solutions in DMSO and further diluted in the culture media to the working concentrations. Cells were treated with UA enantiomers at the concentration range of 0–50 µg/mL. The influence of DMSO on cell viability was also examined, with the final concentration […], and no toxic effect was noted.
(§3) The cells were seeded onto 96-well plates at a density of 1.5 × 10^4 cells/well. After 24 h UA enantiomers were added. Cell viability was determined after 24, 48, and 72 h by the MTT assay, as described previously. Doxorubicin was used as a reference cytostatic drug. All analyses were performed in triplicate; cell viability was expressed as % of control, untreated cells (mean ± SD), and IC50 values (concentration at which cell viability is inhibited by 50%), if possible.
(§4) The selectivity index (SI) was calculated, if possible, by dividing the IC50 value obtained for non-cancerous cells line by the IC50 values obtained for appropriate cancer cell line, as described previously. […] The values above 3 indicate good selectivity.

SH-SY5Y = assay: MTT viability assay, neuroblastoma SH-SY5Y cells; assay type: cell-based, human; details: SHSY5Y, 24 h
Text: as §1, §2, §3

U87MG = assay: MTT viability assay, glioblastoma U87MG cells; assay type: cell-based, human; details: 24 h
Text: as §1, §2, §3

C8D1A = assay: MTT viability assay, normal astrocytes C8D1A; assay type: cell-based, murine; details: C8D1A, 24 h
Text: as §1, §2, §3

CCD 841 CoN = assay: MTT viability assay, normal colon epithelial cells; assay type: cell-based, human; details: for Cell viability: CCD 841 CoN, 24 h; for IC50: Homo sapiens, CCD-841CoN
Text: as §1, §2, §3

PC3 = assay: MTT viability assay, PC3 prostate cancer cells; assay type: cell-based, human; details: for IC50: Homo sapiens, PC-3; for Cell viability: PC3, 24 h
Text: as §1, §2, §3, §4

glioblastoma U251 cells = system: glioblastoma U251 cells; design: method as in PMID 18558490; details: U251, 72 h, cited from earlier work
WM793 cells = system: WM793 cells; design: method as in PMID 34577645; details: WM793, 48 h; cited from earlier work
HepG2 cells = system: HepG2 cells; design: method as in PMID 40368021; details: cited from earlier work
LNCaP = assay: MTT viability assay, LNCaP prostate cancer cells; assay type: cell-based, human; details: for Cell viability: 24 h; for IC50: Homo sapiens
Text: as §1, §2, §3

[1] = recalculated from µM by the authors

In the case of CC(=O)C1=C(O)C=C2Oc3c(C(C)=O)c(O)c(C)c(O)c3[C@]2(C)C1=O [UA(−), (−)-usnic acid], the IC50 (DU145 cells; [1]) is given as 15.8 µg/mL, the IC50 (DU145 cells; read-out: IC50) is given as 45.9 µM and the IC50 (MDA-MB-231; MDA-MB-231, 48 h) is given as 41.4 µg/mL (≈ 120 µM). The IC50 (MDA-MB-231; MDA-MB-231, 72 h) was 20.2 µg/mL (≈ 58.7 µM), the Cell viability (MDA-MB-231; 2.5 µg/mL) was 96.79 % of control and the Cell viability (MDA-MB-231; 5 µg/mL) was 92.06 % of control. For the same compound, the Cell viability (MDA-MB-231; 10 µg/mL) was 88.24 % of control, the Cell viability (MDA-MB-231; 20 µg/mL) was 85.58 % of control and the Cell viability (MDA-MB-231; 30 µg/mL) was 74.48 % of control. For the same compound, the Cell viability (MDA-MB-231; 40 µg/mL) was 68.12 % of control, the Cell viability (MDA-MB-231; 50 µg/mL) was 70.55 % of control and the Cell viability (SH-SY5Y; 2.5 µg/mL) was 96.79 % of control. The Cell viability (SH-SY5Y; 5 µg/mL) was 99.17 % of control, the Cell viability (SH-SY5Y; 10 µg/mL) was 98.10 % of control and the Cell viability (SH-SY5Y; 20 µg/mL) was 96.67 % of control. For the same compound, the Cell viability (SH-SY5Y; 30 µg/mL) was 92.62 % of control, the Cell viability (SH-SY5Y; 40 µg/mL) was 98.57 % of control and the Cell viability (SH-SY5Y; 50 µg/mL) was 99.40 % of control. The Cell viability (U87MG; 2.5 µg/mL) was 102.34 % of control, the Cell viability (U87MG; 5 µg/mL) was 102.19 % of control and the Cell viability (U87MG; 10 µg/mL) was 101.69 % of control. For the same compound, the Cell viability (U87MG; 20 µg/mL) was 101.59 % of control, the Cell viability (U87MG; 30 µg/mL) was 111.54 % of control and the Cell viability (U87MG; 40 µg/mL) was 106.02 % of control. For the same compound, the Cell viability (U87MG; 50 µg/mL) was 98.56 % of control, the Cell viability (C8D1A; 2.5 µg/mL) was 100.83 % of control and the Cell viability (C8D1A; 5 µg/mL) was 99.17 % of control. For the same compound, the Cell viability (C8D1A; 10 µg/mL) was 95.67 % of control, the Cell viability (C8D1A; 20 µg/mL) was 96.00 % of control and the Cell viability (C8D1A; 30 µg/mL) was 88.42 % of control. For the same compound, the Cell viability (C8D1A; 40 µg/mL) was 90.58 % of control, the Cell viability (C8D1A; 50 µg/mL) was 104.75 % of control and the Cell viability (CCD 841 CoN; 2.5 µg/mL) was 98.61 % of control. The Cell viability (CCD 841 CoN; 5 µg/mL) was 98.89 % of control, the Cell viability (CCD 841 CoN; 10 µg/mL) was 96.39 % of control and the Cell viability (CCD 841 CoN; 20 µg/mL) was 99.72 % of control. The Cell viability (CCD 841 CoN; 30 µg/mL) was 96.11 % of control, the Cell viability (CCD 841 CoN; 40 µg/mL) was 96.94 % of control and the Cell viability (CCD 841 CoN; 50 µg/mL) was 93.06 % of control. For the same compound, the IC50 (CCD 841 CoN; 48 h) was over 50 µg/mL, the IC50 (CCD 841 CoN; 72 h) was over 50 µg/mL and the IC50 (PC3; PC3, 48 h) was 37.8 µg/mL (≈ 110 µM). For the same compound, the IC50 (PC3; PC3, 72 h) was 34.8 µg/mL (≈ 101 µM), the “selectivity index (SI)” value (PC3; IC50 PNT2 / IC50 PC3, 48 h) was 0.93 and the “selectivity index (SI)” value (PC3; IC50 PNT2 / IC50 PC3, 72 h) was 0.79. The Cell viability (PC3; 2.5 µg/mL) was 102.94 % of control, the Cell viability (PC3; 5 µg/mL) was 94.68 % of control and the Cell viability (PC3; 10 µg/mL) was 91.59 % of control. For the same compound, the Cell viability (PC3; 20 µg/mL) was 89.10 % of control, the Cell viability (PC3; 30 µg/mL) was 76.52 % of control and the Cell viability (PC3; 40 µg/mL) was 69.15 % of control. For the same compound, the Cell viability (PC3; 50 µg/mL) was 68.91 % of control, the IC50 (glioblastoma U251 cells; [1]) was 6.8 µg/mL and the IC50 (glioblastoma U251 cells; read-out: IC50) was 19.7 µM. The IC50 (WM793 cells) was 52.09 µg/mL (≈ 151 µM), the “IC50 (hepatotoxicity)” value (HepG2 cells; HepG2, 48 h) was 16.0 µg/mL (≈ 46.5 µM) and the “IC50 (hepatotoxicity)” value (HepG2 cells; HepG2, 72 h) was 18.3 µg/mL (≈ 53.1 µM). For the same compound, the Cell viability (LNCaP; 2.5 µg/mL) was 100.45 % of control, the Cell viability (LNCaP; 5 µg/mL) was 98.18 % of control and the Cell viability (LNCaP; 10 µg/mL) was 88.48 % of control. For the same compound, the Cell viability (LNCaP; 20 µg/mL) was 85.30 % of control, the Cell viability (LNCaP; 30 µg/mL) was 81.97 % of control and the Cell viability (LNCaP; 40 µg/mL) was 79.09 % of control. For the same compound, the Cell viability (LNCaP; 50 µg/mL) was 89.39 % of control, the IC50 (LNCaP; 48 h) was over 50 µg/mL and the IC50 (LNCaP; 72 h) was over 50 µg/mL.
